Data published in US10478437B2, “Combination therapy to enhance the anticancer efficacy of platinum drugs” (University of Pittsburgh-of the Commonwealth System of …, priority 2014, dated 2019).
Like-named read-outs stand apart in the source and are kept apart here.

Tests used:
[1] = system: cisplatin-resistant ovarian cancer cell line A2780cis; assay: Caspase-3/7 activity assay (apoptotic cell death), compound alone or with cisplatin; assay type: cell-based, human; settings: for caspase-3/7 activity (Lum), compound with cisplatin / caspase-3/7 activity (Lum), compound alone: 20 h; for caspase-3/7 activity (Lum), compound alone: compound 20 μM; for activity in the screen (Caspase-3/7 activity and microscopic examination), active / inactive: alone or in the presence of cisplatin
Protocol: Cell proliferation was determined using a CyQUANT Direct Cell Proliferation Assay kit (Invitrogen), the activity of caspase-3/7 was measured using a Caspase-Glo 3/7 Assay Systems (Promega, Madison, Wis.), and the MTS calorimetric survival assay was performed using the CellTiter 96 AQueous One Solution Cell Proliferation Assay kit (Promega, Madison, Wis.), according to the manufacturer's instructions. The survival fractions were calculated after setting untreated control cells at 100%. The data were plotted and curve fitted using GraphPad Prism software. To quantify the number of cells with active caspase-3, cells were fixed with 4% paraformaldehyde (Electron microscopy sciences, Hatfield, Pa.), stained with Alexa Fluor-488 conjugated antibody against cleaved caspase-3 (Asp175) (Cell Signaling Technology, Danvers, Mass.) followed by flow cytometry. An FITC Annexin V Apoptosis Detection Kit (BD PharMingen, San Diego, Calif.) was used to quantify apoptotic cells, according to the manufacturer's instructions.
A Caspase-3/7 assay was performed to evaluate the activity of the 36 compounds of FIG. 1 in vitro in the cisplatin-resistant ovarian cancer cell line, A2780cis, alone or in the presence of cisplatin. A microscopic examination of apoptotic morphologic changes was also carried out right before the measurement of Caspase-3/7 activity, in order to confirm that the data on the activation of the Caspase-3/7 following treatment is consistent with morphological change and reflects cell death.

[2] = system: cisplatin-resistant ovarian cancer cell line A2780cis; assay: CellTiter-Blue cell viability assay, compound alone or with cisplatin or carboplatin, 24 h; assay type: cell-based, human; settings: 24 h; for viability at 10 µM / viability at 20 µM / viability at 50 µM: Homo sapiens, A2780cis, read-out: survival (%) of cells with compound alone
Protocol: Data were expressed as mean±standard deviation. A Student's t test was used for the comparisons between the treatment with the combination of analogs with cisplatin and with analogs alone. P<0.05 was considered statistically significant. Combination index was calculated using CompuSyn software. A value of 0.3-0.7 for the combination index indicates synergism, 0.1-0.3 indicates strong synergism, and <0.1 indicates very strong synergism (Chou, 2006).
To further validate the activity of the identified 11 active compounds (see FIG. 3), a CellTiter-Blue cell viability assay was performed with increasing concentrations (10 μM, 20 μM and 50 μM) of the disclosed compounds (see FIG. 4 and Table 5). Cisplatin resistant ovarian cancer cells (A2780cis) were treated with a disclosed compound alone, cisplatin alone or a combination of a compound with cisplatin for 24 h to determine the effects of the compounds on cell viability.
Analysis of the effect of the disclosed compounds with another platinum-containing compound, carboplatin, was performed. A2780cis cells were treated with carboplatin alone or with the combination of carboplatin and the disclosed compounds at indicated concentrations for 24 h followed by the analysis of cell viability.

[3] = Table 1, compound 20 μM with 20 μM cisplatin
[4] = Table 1, mean ± S.D. of triplicates
[5] = compound 10 μM + cisplatin 20 μM
[6] = compound 20 μM + cisplatin 20 μM
[7] = compound 50 μM + cisplatin 20 μM
[8] = Table 3, compound 20 μM with 20 μM of cisplatin

SMILES | caspase-3/7 activity (Lum), compound with cisplatin [1, 3] [Lum] | caspase-3/7 activity (Lum), compound alone [1, 4] [Lum] | activity in the screen (Caspase-3/7 activity and microscopic examination), active / inactive ([1]; in words) | caspase-3/7 activity (Lum), compound with cisplatin [1, 8] [Lum] | caspase-3/7 activity (Lum), compound alone ([1]; Table 3) [Lum] | also measured
O=c1c2ccccc2[nH]c(=S)n1Cc1cccnc1 [Compound 1-4] | 93 ± 5 | 13 ± 1 | active |  |  | caspase-3/7 activity (Lum), compound alone ([1]; Table 2): 13 ± 1 Lum; Caspase-3/7 activity upon combination with cisplatin compared to cisplatin alone or compound alone ([1]; in words): increase in Caspase-3/7 activity; viability at 10 µM ([2]; compound 10 μM, untreated cells = 100%): 95.9 ± 2.4%; viability at 20 µM ([2]; compound 20 μM, untreated cells = 100%): 95.6 ± 1.3%; viability at 50 µM ([2]; compound 50 μM, untreated cells = 100%): 91.8 ± 2.9%; survival (%) of cells with compound and cisplatin (20 μM) [2, 5]: 89.8 ± 0.1%; survival (%) of cells with compound and cisplatin (20 μM) [2, 6]: 61.2 ± 3.4%; survival (%) of cells with compound and cisplatin (20 μM) [2, 7]: 20.9 ± 1.3%
Cc1cccnc1NC(=S)NC(=O)c1cccs1 [Compound 2-2] |  |  |  | 25 ± 1 | 9 ± 1 | 
Cc1ccc(NC(=S)NC(=O)c2ccc(F)cc2)nc1 [Compound 2-23] |  |  | inactive | 22 ± 2 | 7 ± 0 | 
O=C1NC(=S)NC(=O)C1=Cc1c[nH]c2ccccc12 [Compound 2-7] |  |  | active | 41 ± 3 | 25 ± 1 | caspase-3/7 activity (Lum), compound alone ([1]; Table 4): 25 ± 1 Lum; viability at 10 µM [2]: 97 ± 1.5%; viability at 20 µM [2]: 93.3 ± 3.6%; viability at 50 µM [2]: 47.2 ± 1.8%; survival (%) of cells with compound and cisplatin (20 μM) [2, 5]: 91.9 ± 14.0%; survival (%) of cells with compound and cisplatin (20 μM) [2, 6]: 76.1 ± 6.6%; survival (%) of cells with compound and cisplatin (20 μM) [2, 7]: 39.4 ± 5.2%
C=CCn1c(=S)[nH]c2scc(-c3ccc(C)c(C)c3)c2c1=O [Compound 1-3] | 28 ± 2 | 12 ± 1 | inactive |  |  | 
CC(=O)Nn1c(=S)[nH]c2ccccc2c1=O [Compound 1-29] | 23 ± 1 | 15 ± 2 |  |  |  | 
Cc1ccc(C(=O)NC(=S)Nc2ccc(C)cn2)cc1 [Compound 2-24] |  |  | inactive | 19 ± 5 | 7 ± 1 | 
